Values after ≈ are worked out from the molar mass of the structure shown.
What was measured:
Assay in all cases: ≥ marks a high value that may be exact or a test limit, other limits are often not marked, values filed in µg/mL are converted to µM
[1] = tested on: Micrococcus luteus ATCC 9341
[2] = tested on: Staphylococcus aureus ATCC 6538
[3] = tested on: Candida albicans ATCC 36232
[4] = tested on: Escherichia coli ATCC 2592
[5] = tested on: Pseudomonas aeruginosa ATCC 9027
[6] = tested on: Escherichia coli NCTC 10418
[7] = tested on: Staphylococcus aureus NCTC 10788
[8] = tested on: Staphylococcus aureus NCTC 12493
[9] = tested on: Enterococcus faecalis NCTC 12697
[10] = tested on: Candida albicans NCYC 1467
[11] = tested on: Pseudomonas aeruginosa ATCC 27853
[12] = tested on: Klebsiella pneumoniae ATCC 10031
[13] = tested on: Salmonella enterica subsp. enterica serovar Typhimurium ATCC 14028
[14] = tested on: Escherichia coli DH5alpha
[15] = tested on: Staphylococcus aureus ATCC 12493
[16] = tested on: Candida albicans NCPF 1467
[17] = tested on: Staphylococcus aureus ATCC 25923
[18] = tested on: Candida albicans ATCC 20032
[19] = tested on: Escherichia coli ATCC 25922
[20] = tested on: Bacillus subtilis ATCC 6633
[21] = tested on: Streptococcus mutans ATCC 25175
[22] = tested on: Staphylococcus aureus ATCC 12600
[23] = tested on: Staphylococcus epidermidis ATCC 12228
[24] = tested on: Staphylococcus aureus

Compound `CC(C)C[C@H](NC(=O)[C@H](CS)NC(=O)[C@H](CCCCN)NC(=O)[C@H](C)NC(=O)[C@H](C)NC(=O)[C@H](CS)NC(=O)[C@H](C)NC(=O)[C@H](C)NC(=O)[C@@H](N)CC(=O)O)C(=O)N[C@@H](Cc1c[nH]c2ccccc12)C(=O)N[C@@H](CCCN=C(N)N)C(N)=O` [DAACAAKCLWR] has an MIC [1] of at least 166 µM, an MIC [2] of 166 µM (≈ 200 µg/mL) and an MIC [3] of at least 166 µM. For the same compound, the MIC [4] was at least 166 µM and the MIC [5] was over 166 µM.
For `CC[C@H](C)[C@H](NC(=O)CNC(=O)[C@H](CCC(N)=O)NC(=O)[C@@H](NC(=O)[C@H](C)NC(=O)[C@H](Cc1cnc[nH]1)NC(=O)[C@@H]1CCCN1C(=O)[C@@H](NC(=O)[C@H](CC(C)C)NC(=O)[C@@H]1CCCN1C(=O)[C@@H](NC(=O)[C@H](CC(C)C)NC(=O)[C@H](Cc1cnc[nH]1)NC(=O)[C@H](CCC(N)=O)NC(=O)[C@@H](NC(=O)[C@@H](N)Cc1ccccc1)[C@@H](C)CC)[C@@H](C)CC)[C@@H](C)CC)[C@@H](C)CC)C(=O)N[C@@H](CCCCN)C(=O)N[C@@H](CC(=O)O)C(=O)N[C@H](C(=O)N[C@@H](Cc1ccccc1)C(N)=O)[C@@H](C)CC` [FIQHLIPLIPHAIQGIKDIF], the MIC [6] was at least 512 µM, the MIC [7] was 22.6 µM (≈ 52.3 µg/mL) and the MIC [8] was at least 45.3 µM. For the same compound, the MIC [9] was at least 128 µM, the MIC [10] was at least 90.5 µM and the MIC [11] was over 512 µM.
In the case of `CC(C)C[C@H](NC(=O)[C@H](Cc1ccccc1)NC(=O)[C@H](CCCCN)NC(=O)[C@H](C)NC(=O)[C@H](C)NC(=O)[C@H](CC(C)C)NC(=O)[C@H](CCCCN)NC(=O)[C@H](CCCCN)NC(=O)[C@H](CC(C)C)NC(=O)[C@H](CC(C)C)NC(=O)[C@H](CCCCN)NC(=O)[C@H](CC(C)C)NC(=O)[C@@H](N)Cc1ccccc1)C(=O)O` [FLKLLKKLAAKFL], the MIC [12] is reported as 16.3 µM (≈ 25 µg/mL), the MIC [13] is reported as 16.3 µM (≈ 25 µg/mL) and the MIC [14] is reported as 2.04 µM (≈ 3.13 µg/mL).
For `CC[C@H](C)[C@H](NC(=O)CNC(=O)[C@@H]1CCCN1C(=O)[C@H](CC(C)C)NC(=O)[C@@H](N)Cc1ccccc1)C(=O)N[C@@H](CC(C)C)C(=O)N[C@@H](CCCCN)C(=O)N[C@H](C(=O)N[C@@H](C)C(=O)N[C@@H](C)C(=O)N[C@@H](CCCCN)C(N)=O)C(C)C` [FLPGILKVAAK], the MIC [6] was at least 512 µM, the MIC [15] was at least 512 µM and the MIC [16] was at least 512 µM. For the same compound, the MIC [7] was at least 256 µM, the MIC [9] was at least 512 µM and the MIC [11] was over 512 µM.
In the case of `CC[C@H](C)[C@H](NC(=O)CN)C(=O)NCC(=O)NCC(=O)N[C@@H](C)C(=O)N[C@@H](CC(C)C)C(=O)N[C@@H](CC(C)C)C(=O)N[C@@H](CO)C(=O)N[C@@H](C)C(=O)NCC(=O)N[C@@H](CCCCN)C(=O)N[C@@H](CO)C(=O)N[C@@H](C)C(=O)N[C@@H](CC(C)C)C(=O)N[C@@H](CCCCN)C(=O)NCC(=O)N[C@@H](CC(C)C)C(=O)N[C@@H](C)C(=O)N[C@@H](CCCCN)C(=O)NCC(=O)N[C@@H](CC(C)C)C(=O)N[C@@H](C)C(=O)N[C@@H](CCC(=O)O)C(=O)N[C@@H](Cc1cnc[nH]1)C(=O)N[C@@H](Cc1ccccc1)C(N)=O` [GIGGALLSAGKSALKGLAKGLAEHF], the MIC [17] is reported as 15.8 µM (≈ 37.5 µg/mL), the MIC [18] is reported as at least 42.3 µM and the MIC [19] is reported as 31.7 µM (≈ 75 µg/mL). For the same compound, the MIC [20] was at least 42.3 µM.
Compound `CC[C@H](C)[C@H](NC(=O)[C@H](C)NC(=O)CNC(=O)[C@H](Cc1ccccc1)NC(=O)[C@H](CC(C)C)NC(=O)CN)C(=O)N[C@@H](C)C(=O)NCC(=O)N[C@@H](Cc1ccccc1)C(=O)N[C@H](C(=O)N[C@@H](CCC(=O)O)C(=O)N[C@@H](CC(N)=O)C(=O)NCC(=O)N[C@@H](Cc1c[nH]c2ccccc12)C(=O)N[C@@H](CCC(=O)O)C(=O)NCC(=O)N[C@@H](CCSC)C(=O)N[C@H](C(=O)N[C@@H](CC(=O)O)C(=O)NCC(N)=O)[C@@H](C)CC)[C@@H](C)CC` [GLFGAIAGFIENGWEGMIDG] has an MIC [21] of at least 60.9 µM, an MIC [22] of at least 60.9 µM and an MIC [11] of over 60.9 µM. It also gave an MIC [19] of over 60.9 µM.
`CC[C@H](C)[C@H](N)C(=O)N[C@@H](CC(C)C)C(=O)NCC(=O)N1CCC[C@H]1C(=O)N[C@H](C(=O)N[C@@H](CC(C)C)C(=O)NCC(=O)N[C@@H](CC(C)C)C(=O)N[C@H](C(=O)NCC(=O)N[C@@H](CC(=O)O)C(=O)N[C@H](C(=O)N[C@@H](CC(C)C)C(=O)NCC(=O)N[C@@H](CC(=O)O)C(=O)N[C@@H](CC(C)C)C(=O)N[C@@H](CC(C)C)C(N)=O)[C@@H](C)O)C(C)C)C(C)C` [ILGPVLGLVGDTLGDLL] showed an MIC [17] of over 60.1 µM, an MIC [18] of at least 60.1 µM and an MIC [19] of over 60.1 µM. The MIC [20] was at least 60.1 µM.
`CC[C@H](C)[C@@H]1NC(=O)[C@H](CO)NC(=O)[C@H](CCCCN)NC(=O)[C@H]([C@@H](C)O)NC(=O)[C@H](Cc2c[nH]c3ccccc23)NC(=O)[C@@H](NC(=O)[C@H](CCCN=C(N)N)NC(=O)[C@H](CCCN=C(N)N)NC(=O)[C@H](CCCN=C(N)N)NC(=O)[C@H](CCC(N)=O)NC(=O)[C@H](CCCN=C(N)N)NC(=O)[C@H](CCCN=C(N)N)NC(=O)[C@H](CCCCN)NC(=O)[C@H](CCCCN)NC(=O)[C@@H](N)CCCN=C(N)N)CSSC[C@@H](C(=O)O)NC(=O)[C@@H]2CCCN2C(=O)[C@H](CCCCN)NC(=O)[C@@H]2CCCN2C(=O)[C@@H]2CCCN2C1=O` [RKKRRQRRRCWTKSIPPKPC] showed an MIC [6] of at least 128 µM, an MIC [15] of at least 256 µM and an MIC [7] of at least 128 µM. It also gave an MIC [10] of 4 µM (≈ 10.3 µg/mL) and an MIC [11] of 256 µM (≈ 660 µg/mL).
`CC(C)[C@H](NC(=O)[C@H](CS)NC(=O)[C@@H](NC(=O)[C@H](CCCN=C(N)N)NC(=O)[C@H](CCCCN)NC(=O)CNC(=O)[C@H](CC(N)=O)NC(=O)[C@H](CS)NC(=O)[C@H](Cc1ccc(O)cc1)NC(=O)CNC(=O)CNC(=O)[C@H](CO)NC(=O)[C@@H](N)CCCN=C(N)N)C(C)C)C(=O)N[C@@H](CS)C(=O)N[C@@H](CCCN=C(N)N)C(=O)O` [RSGGYCNGKRVCVCR] showed an MIC [1] of 15.1 µM (≈ 25 µg/mL), an MIC [23] of 7.54 µM (≈ 12.5 µg/mL) and an MIC [2] of 15.1 µM (≈ 25 µg/mL). For the same compound, the MIC [3] was 15.1 µM (≈ 25 µg/mL), the MIC [4] was 30.2 µM (≈ 50 µg/mL) and the MIC [24] was over 60.3 µM. It also gave an MIC [5] of 30.2 µM (≈ 50 µg/mL) and an MIC [20] of 7.54 µM (≈ 12.5 µg/mL).
With `CC(C)C[C@H](NC(=O)[C@H](C)NC(=O)[C@@H](N)CO)C(=O)N[C@H](C(=O)NCC(=O)N[C@H]1CSSC[C@@H](C(=O)N[C@@H](Cc2ccccc2)C(=O)NCC(=O)N[C@@H](CCCN=C(N)N)C(=O)NCC(=O)O)NC(=O)[C@@H]2CCCN2C(=O)[C@H](CC(N)=O)NC(=O)[C@@H]2CCCN2C(=O)[C@@H]2CCCN2C(=O)[C@H](Cc2ccc(O)cc2)NC(=O)[C@H](CO)NC(=O)[C@H](CCCCN)NC(=O)[C@H]([C@@H](C)O)NC(=O)[C@H](Cc2c[nH]c3ccccc23)NC1=O)C(C)C` [SALVGCWTKSYPPNPCFGRG] the MIC [17] was 11.7 µM (≈ 25 µg/mL) and the MIC [18] was at least 46.7 µM.
`CC(C)C[C@H](NC(=O)[C@H](C)NC(=O)[C@H](C)NC(=O)[C@H](CC(C)C)NC(=O)[C@H](CC(N)=O)NC(=O)[C@@H](NC(=O)[C@@H](NC(=O)[C@H](CC(C)C)NC(=O)[C@H](CCCCN)NC(=O)[C@H](CCCCN)NC(=O)[C@@H](NC(=O)[C@@H](NC(=O)[C@@H](NC(=O)[C@H](CC(C)C)NC(=O)[C@H](Cc1ccccc1)NC(=O)[C@@H](N)CO)[C@@H](C)O)[C@@H](C)O)C(C)C)C(C)C)[C@@H](C)O)C(N)=O` [SFLTTVKKLVTNLAAL] showed an MIC [6] of 16 µM (≈ 27.5 µg/mL), an MIC [15] of 16 µM (≈ 27.5 µg/mL) and an MIC [16] of 16 µM (≈ 27.5 µg/mL). For the same compound, the MIC [7] was 8 µM (≈ 13.7 µg/mL), the MIC [9] was at least 32 µM and the MIC [11] was 64 µM (≈ 110 µg/mL).

Source: DBAASP
